Measured values taken from patent publication US20190203240A1, “METHODS FOR THE PRODUCTION OF RHAMNOSYLATED FLAVONOIDS” (Universitaet Hamburg, priority 2016, published 2019).
Where “and” joins values, the source holds several entries; their conditions need not be identical. Equal entries are not always repeated.

Columns and labels:
[1] = tested on: fibronectin; assay: Stimulation of fibronectin synthesis in NHDF (ELISA); assay type: cell-based, human; conditions: 72 h incubation, 10 ng/ml
Procedure: Tests were performed with normal human dermal fibroblast cultures at the 8th passage. Cells were grown in DMEM supplemented with glutamine at 2 mM, penicillin at 50 U/mL and streptomycin (50 μg/mL) and 10% of fetal calf serum (FCS) at 37° C. in a 5% CO2 atmosphere.
Fibroblasts were cultured for 24 hours before the cells were incubated with the test compounds for further 72 hours. After the incubation the culture supernatants were collected in order to measure the released quantities of procollagen I, VEGF, and fibronectin by means of ELISA. Reference test compounds were vitamin C (procollagen I), PMA (VEGF), and TGF-β (fibronectin).

[2] = tested on: lipid peroxides (C11-fluor) in NHEK cells; assay: Protection against UV-induced lipid peroxide in NHEK (C11-fluor probe, flow cytometry); assay type: cell-based, human; conditions: 240 mJ/cm^2 UVB (3538 mJ/cm^2 UVA), 50 μM
Procedure: Pre-incubated NHEK were incubated with the test compound for 24 h. Then the specific fluorescence probe for the measurement of hydrogen peroxide (DHR) or lipid peroxides (C11-fluor) was added and incubated for 45 min. Irradiation occurred with in H2O2 determination UVB at 180 mJ/cm^2 (+UVA at 2839 mJ/cm^2) or UVB at 240 mJ/cm^2 (+UVA at 3538 mJ/cm^2) in lipid peroxide, respectively, using a SOL500 Sun Simulator lamp. After irradiation the cells were post-incubated for 30 min before flow-cytometry analysis.

[3] = tested on: NF-κB; assay: NF-κB activity in NIH3T3-KBF-Luc cells stimulated with TNFα (luciferase); assay type: cell-based; conditions: +30 ng/ml TNFα
Procedure: NIH3T3-KBF-Luc cells were stably transfected with the KBF-Luc plasmid (Sancho (2003) Mol Pharmacol 63:429-438), which contains three copies of NF-κB binding site (from major histocompatibility complex promoter), fused to a minimal simian virus 40 promoter driving the luciferase gene. Cells (1×10^4 for NIH3T3-KBF-Luc) were seeded the day before the assay on 96-well plate. Then the cells were treated with the test substances for 15 min and then stimulated with 30 ng/ml of TNFα. After 6 h, the cells were washed twice with PBS and lysed in 50 μl lysis buffer containing 25 mM Tris-phosphate (pH 7.8), 8 mM MgCl2, 1 mM DTT, 1% Triton X-100, and 7% glycerol during 15 min at RT in a horizontal shaker. Luciferase activity was measured using a GloMax 96 microplate luminometer (Promega) following the instructions of the luciferase assay kit (Promega, Madison, Wis., USA). […] The experiments for each concentration of the test items were done in triplicate wells.

[4] = tested on: STAT3; assay: STAT3 activity in HeLa-STAT3-luc cells stimulated with IFN-γ (luciferase); assay type: cell-based; conditions: +IFNγ 25 U/ml
Procedure: HeLa-STAT3-luc cells were stably transfected with the plasmid 4×M67 pTATA TK-Luc. Cells (20×10^3 cells/ml) were seeded 96-well plate the day before the assay. Then the cells were treated with the test substances for […] and then stimulated with IFN-γ 25 IU/ml. After 6 h, the cells were washed twice with PBS and lysed in […] lysis buffer containing 25 mM Tris-phosphate (pH 7.8), 8 mM MgCl2, 1 mM DTT, 1% Triton X-100, and 7% glycerol during […] at RT in a horizontal shaker. Luciferase activity was measured using GloMax 96 microplate luminometer (Promega) following the instructions of the luciferase assay kit (Promega, Madison, Wis., USA). […] The experiments for each concentration of the test items were done in triplicate wells.

[5] = tested on: HaCaT cells; assay: Glucose uptake (2-NBDG) in HaCaT keratinocytes; assay type: cell-based; conditions: +2NBDG 50 μM, 24 h
Procedure: HaCaT cells (5×10^4) were seeded in 96-well black plates and incubated for 24 h. Then, medium was removed and the cells cultivated in OptiMEM, labeled with 50 μM 2-NBDG (2-[N-(7-nitrobenz-2-oxa-1,3-diazol-4-yl) amino]-2-deoxy-D-glucose and treated with the test substances or the positive control, Rosiglitazone, for 24 h. Medium was removed and the wells were carefully washed with PBS and incubated in PBS (100 μl/well). Finally the fluorescence was measured using the Incucyte FLR software, the data were analyzed by the total green object integrated intensity (GCU×μm2×Well) of the imaging system IncuCyte HD (Essen BioScience). The fluorescence of Rosiglitazone is taken as 100% of glucose uptake, and the glucose uptake was calculated as (% Glucose uptake)=100(T−B)/(R−B), where T (treated) is the fluorescence of test substance-treated cells, B (Basal) is the fluorescence of 2-NBDG cells and […] is the fluorescence of cells treated with Rosiglitazone.

[6] = tested on: normal human epidermal keratinocytes (NHEK); assay: Cytotoxicity on NHEK monolayer (MTT reduction assay and morphological observation); assay type: cell-based; conditions: for Viability (%) Mean / Viability (%): MTT; for Viability (%): single values; for Morph. obs.: microscope
Procedure: To determine the cytotoxicity of flavonoid-5-O-α-L-rhamnosides tests were performed versus their aglycon derivatives in cell monolayer cultures. For this purpose concentrations ranging from 1 μM to 250 μM were chosen. The viability of normal human epidermal keratinocytes (NHEK) was twice evaluated by a MTT reduction assay and morphological observation with a microscope. NHEK were grown at 37° C. and 5% CO2 aeration in Keratinocyte-SFM medium supplemented with epidermal growth factor (EGF) at 0.25 ng/mL, pituitary extract (PE) at 25 μg/mL and gentamycin (25 μg/mL) for 24 h and were used at the 3rd passage. For cytotoxicity testing, pre-incubated NHEK were given fresh culture medium containing a specific concentration of test compound and incubated for 24 h. After a medium change at same test concentration cells were incubated a further 24 h until viability was determined. Test results are given in Table B2 and illustrated in FIG. 10.

[7] = tested on: PGE2; assay: Anti-inflammatory potential: secreted PGE2 in stimulated NHEK (ELISA); assay type: cell-based, human; conditions: PMA - 1 μg/ml, reference at 10^−6M, cytokine type not given
Procedure: NHEK were pre-incubated for 24 h with the test compounds. The medium was replaced with the NHEK culture medium containing the inflammatory inducers (PMA or Poly I:C) and incubated for another 24 hours. Positive and negative controls ran in parallel. At the endpoint the culture supernatants were quantified of secreted IL-8, PGE2 and TNF-α, by means of ELISA.

TGF-β [listing 1 of 2 here]
Fibronectin (ng/ml), single replicates [1]: 11178 ng/mL and 11128 ng/mL

Cc1cc(C(C)(C)C)c(O)c(C(C)(C)C)c1 [BHT]
C11-fluor (AU) Mean (1/GMFI) [2]: 3.3E−04 AU | lipid peroxide % Irradiated control [2]: 72% | lipid peroxide Protection % [2]: 37% | C11-fluor (AU) 1/GMFI ([2]; single values): 3.2E−04 AU and 3.3E−04 AU and 3.5E−04 AU | C11-fluor (AU) GMFI ([2]; single values): 3139 AU and 3047 AU and 2877 AU

COc1ccc(-c2coc3cc(O[C@@H]4O[C@@H](C)[C@H](O)[C@@H](O)[C@H]4O)cc(O[C@@H]4O[C@@H](C)[C@H](O)[C@@H](O)[C@H]4O)c3c2=O)cc1 [BR1, Biochanin A-5,7-di-O-α-L-rhamnoside]
% Activation (NF-κB; TNFα = 100%) ([3]; 10 μM): 170.3% | RLU 1 ([3]; 10 μM): 259120 RLU | RLU 2 ([3]; 10 μM): 247590 RLU | RLU 3 ([3]; 10 μM): 229500 RLU | RLU MEAN ([3]; 10 μM): 245403 RLU | RLU specific ([3]; 10 μM): 222040 RLU | % Activation (NF-κB; TNFα = 100%) ([3]; 25 μM): 141.4% | RLU 1 ([3]; 25 μM): 211660 RLU | RLU 2 ([3]; 25 μM): 208010 RLU | RLU 3 ([3]; 25 μM): 203720 RLU | RLU MEAN ([3]; 25 μM): 207797 RLU | RLU specific ([3]; 25 μM): 184433 RLU | % Activation (STAT3; IFNγ = 100%) ([4]; 25 μM): 110.41% | RLU 1 ([4]; 25 μM): 8162 RLU | RLU 2 ([4]; 25 μM): 12819 RLU | RLU 3 ([4]; 25 μM): 11157 RLU | RLU MEAN ([4]; 25 μM): 10713 RLU | RLU specific ([4]; 25 μM): 8878 RLU | % Activation (STAT3; IFNγ = 100%) ([4]; 50 μM): 126.67% | RLU 1 ([4]; 50 μM): 12336 RLU | RLU 2 ([4]; 50 μM): 11620 RLU | RLU 3 ([4]; 50 μM): 12104 RLU | RLU MEAN ([4]; 50 μM): 12020 RLU | RLU specific ([4]; 50 μM): 10185 RLU | % Glucose uptake (Rosiglitazone = 100%) ([5]; 25 μM): 44.0% | Mean (fluorescence) ([5]; 25 μM): 597246 | Measure 1 (fluorescence) ([5]; 25 μM): 730362 | Measure 2 (fluorescence) ([5]; 25 μM): 661244 | Measure 3 (fluorescence) ([5]; 25 μM): 400131 | RFU specific ([5]; 25 μM): 564160 RFU | % Glucose uptake (Rosiglitazone = 100%) ([5]; 50 μM): 56.4% | Mean (fluorescence) ([5]; 50 μM): 756509 | Measure 1 (fluorescence) ([5]; 50 μM): 899548 | Measure 2 (fluorescence) ([5]; 50 μM): 626443 | Measure 3 (fluorescence) ([5]; 50 μM): 743535 | RFU specific ([5]; 50 μM): 723423 RFU

O=C1CC(c2ccc(O)cc2)Oc2cc(O)cc(O)c21 (stereo not drawn) [Naringenin, 4′,5,7-Trihydroxyflavanone]
Viability (%) Mean ([6]; 1 μM): 95% | Viability (%) ([6]; 1 μM): 96% and 95% | Viability (%) Mean ([6]; 2.5 μM): 93% | Viability (%) ([6]; 2.5 μM): 95% and 92% | Viability (%) Mean ([6]; 5 μM): 92% | Viability (%) ([6]; 5 μM): 93% and 91% | Viability (%) Mean ([6]; 10 μM): 95% | Viability (%) ([6]; 10 μM): 95% | Viability (%) Mean ([6]; 25 μM): 92% | Viability (%) ([6]; 25 μM): 89% and 94% | Viability (%) Mean ([6]; 50 μM): 89% | Viability (%) ([6]; 50 μM): 85% and 94% | Viability (%) Mean ([6]; 100 μM): 75% | Viability (%) ([6]; 100 μM): 76% and 74% | Viability (%) Mean ([6]; 250 μM): 47% | Viability (%) Mean ([6]; 250 μM, listed as naringenin): about 50% | Viability (%) ([6]; 250 μM): 48% and 47% | Morph. obs. ([6]; 100 μM): +/−,* | Morph. obs. ([6]; 250 μM): +/−,*

COc1ccc2c(c1)c(CC(=O)O)c(C)n2C(=O)c1ccc(Cl)cc1 [Indomethacin]
% stim. control [7]: 2% | Cytokine [pg/mL] Mean [7]: 39 pg/mL | Cytokine ([7]; single values): 39 pg/mL

TGF-β [listing 2 of 2 here]
Fibronectin % Control [1]: 181% | Fibronectin % Stimulation [1]: 81% | Fibronectin (ng/ml), single replicates [1]: 10870 ng/mL

COc1ccc(C2CC(=O)c3c(O)cc(O)cc3O2)cc1O (stereo not drawn) [Hesperetin, 3′,5,7-Trihydroxy-4′-methoxyflavanone]
Viability (%) Mean ([6]; 1 μM): 105% | Viability (%) ([6]; 1 μM): 103% and 106% | Viability (%) Mean ([6]; 2.5 μM): 103% | Viability (%) ([6]; 2.5 μM): 98% and 109% | Viability (%) Mean ([6]; 5 μM): 106% | Viability (%) ([6]; 5 μM): 107% and 106% | Viability (%) Mean ([6]; 10 μM): 103% | Viability (%) ([6]; 10 μM): 101% and 105% | Viability (%) Mean ([6]; 25 μM): 108% | Viability (%) ([6]; 25 μM): 106% and 109% | Viability (%) Mean ([6]; 50 μM): 106% | Viability (%) ([6]; 50 μM): 106% | Viability (%) Mean ([6]; 100 μM): 99% | Viability (%) ([6]; 100 μM): 98% and 100% | Viability (%) Mean ([6]; 250 μM): 57% | Viability (%) Mean ([6]; 250 μM, listed as hesperetin): about 50% | Viability (%) ([6]; 250 μM): 54% and 59%
